Laboratory results published in patent US10258606B2, “Endothelin single nucleotide polymorphisms and methods of predicting β-adrenergic receptor targeting agent efficacy” (The Regents of the University of Colorado, A Body Corporate, priority 2007, dated 2019).

Columns and labels:
[1] = system: subjects with idiopathic dilated cardiomyopathy; test: BEST (Beta-Blocker Evaluation of Survival Trial) DNA substudy: time to event by endothelin gene system genotype, Cox proportional hazards model; format: in vivo, human; settings: for Event/number, first heart failure hospitalization or death: FIG. 1; for E, number of events / HR associated with each copy of allele A, allele dosage Cox model / HR associated with each copy of allele Asn, allele dosage Cox model: bucindolol arm; for HR associated with each copy of allele A, allele dosage Cox model: G/A (IVS-4); for HR associated with each copy of allele Asn, allele dosage Cox model: Lys198Asn
Text: 309 subjects with idiopathic dilated cardiomyopathy were studied from the Beta-Blocker Evaluation of Survival Trial (BEST) (2001). BEST was a multicenter, randomized, prospective trial of patients with NYHA class III or IV heart failure and an ejection fraction <35% comparing mortality in adults treated with placebo or the non-selective β-blocker bucindolol. The BEST DNA bank, initiated in the study's second year, collected samples from 38% of the original participants. The inventors requested samples from idiopathic dilated cases, rather than the entire cohort, to ensure a more homogenous heart failure population. In particular, the inventors sought to avoid studying […] ischemic forms of heart failure where acquired macrovascular changes in arterial stiffness or tone could potentially mask or override inherent microvascular phenotypes mediated by variation in endothelin genes. Written informed consent was obtained from each participant and all DNA was coded to maintain confidentiality. The genotyping project was approved by the BEST DNA Bank Oversight Committee and by the Colorado Multiple Institutional Review Board
Time to each of two endpoints was examined: all cause death and a combined endpoint comprised of first heart failure hospitalization or all cause death, using the Cox proportional hazards model. Genotype was treated a priori as a continuous variable, consistent with an allele dosage effect. Analyses were conducted using R and SAS. Primary analyses consisted of separate tests of a main genotype effect on time to event for each SNP within each treatment arm: placebo (N=159) and bucindolol (N=150). Secondary analyses, in the combined sample (N=309), consisted of tests of a genotype-treatment pharmacogenetic interaction and of a main genotype effect independent of treatment arm. Secondary analyses, comprised of interaction tests and estimation of within-genotype bucindolol:placebo hazard ratios, were also performed. Ethnicity was not included as a factor in initial Cox models, because of the relatively small sample. However, post-hoc analyses (within ethnic group, and including ethnicity-genotype interactions) were used to explore whether initial results were due to unaccounted for ethnic stratification. Linkage disequilibrium was assessed by taking the R^2 value (squared correlation) of the genotypes (coded as 0, 1 or 2) between two SNPs.
To account for the large number of simultaneous tests, adjusted p-values obtained from a multiple-testing permutation procedure are reported (Westfall and Young, 1993). Based on the actual data set, 5000 random data sets were generated by randomly permuting the time to event data relative to the genotype data, separately for patients on placebo and for patients on bucindolol. […] Adjusted p-values for interaction tests are based on 18 tests (2 outcomes×9 SNPs).
Cox model analysis was also used to examine a variety of more complicated models, and to describe the quantify the effects of bucindolol in terms of bucindolol:placebo hazard ratios, within genotype. Kaplan-Meier plots and log-rank tests were also examined. All p-values were based on two-sided tests. The statistical analysis was performed at the Veterans Affairs Cooperative Studies Program DNA Bank Coordinating Center.

[2] = system: 1040 BEST DNA Bank subjects; settings: bucindolol treated subjects carrying the Arg-389 allele of the beta-1-adrenergic receptor (ADRB); cited from earlier work
[3] = combined endpoint, Non-Hispanic Blacks
[4] = combined endpoint, Non-Hispanic Whites

## CC(C)(Cc1c[nH]c2ccccc12)NCC(O)COc1ccccc1C#N (centres unmarked) [Bucindolol, bucindolol]
[1]; IVS-4 G/A common homozygotes
  Event/number, first heart failure hospitalization or death: 21/84
[1]; IVS-4 G/A heterozygotes
  Event/number, first heart failure hospitalization or death: 21/58
[1]; IVS-4 G/A rare homozygotes
  Event/number, first heart failure hospitalization or death: 7/8
[1]; Lys198Asn common homozygotes
  Event/number, first heart failure hospitalization or death: 22/87
[1]; Lys198Asn heterozygotes
  Event/number, first heart failure hospitalization or death: 20/55
[1]; Lys198Asn rare homozygotes
  Event/number, first heart failure hospitalization or death: 7/8
[1]; combined endpoint, G/A (IVS-4) analysis, All (N 150)
  E, number of events: 49
[1]; combined endpoint, G/A (IVS-4) analysis, Non-Hispanic Blacks (N 38)
  E, number of events: 16
[1]; combined endpoint, G/A (IVS-4) analysis, Non-Hispanic Whites (N 100)
  E, number of events: 27
[1]; combined endpoint, All
  HR associated with each copy of allele A, allele dosage Cox model: 2.2
  HR associated with each copy of allele Asn, allele dosage Cox model: 2.0
[1]; [3]
  HR associated with each copy of allele A, allele dosage Cox model: 1.58
  HR associated with each copy of allele Asn, allele dosage Cox model: 1.5
[1]; [4]
  HR associated with each copy of allele A, allele dosage Cox model: 1.9
  HR associated with each copy of allele Asn, allele dosage Cox model: 1.9
[1]; combined endpoint, Lys198Asn analysis, All (N 150)
  E, number of events: 49
[1]; combined endpoint, Lys198Asn analysis, Non-Hispanic Blacks (N 38)
  E, number of events: 16
[1]; combined endpoint, Lys198Asn analysis, Non-Hispanic Whites (N 100)
  E, number of events: 27
[1]; combined endpoint (first heart failure hospitalization or all cause mortality), EDN1 G/A (IVS-4) genotype GG
  Hazard ratio for bucindolol versus placebo: 0.5
[1]; combined endpoint, EDN1 G/A (IVS-4) genotype AA
  Hazard ratio for bucindolol versus placebo: 3.2
[1]; combined endpoint, EDN1 G/A (IVS-4) genotype GA
  Hazard ratio for bucindolol versus placebo: 1.1
[1]; combined endpoint, EDN1 Lys198Asn genotype Asn/Asn
  Hazard ratio for bucindolol versus placebo: 2.5
[1]; combined endpoint, EDN1 Lys198Asn genotype Lys/Asn
  Hazard ratio for bucindolol versus placebo: 1.1
[1]; combined endpoint, EDN1 Lys198Asn genotype Lys/Lys
  Hazard ratio for bucindolol versus placebo: 0.5
[1]; common homozygotes (statistically significant)
  apparent effect of bucindolol on combined endpoint: beneficial effect
[1]; heterozygotes
  apparent effect of bucindolol on combined endpoint: neutral effect
[1]; rare homozygotes
  apparent effect of bucindolol on combined endpoint: harmful effect
[1]; the 5.5% of subjects homozygous for the rare complementary haplotype
  combined endpoint hazard rate on bucindolol relative to placebo: almost three times greater
[2]
  all-cause mortality: reduced all-cause mortality
